In patent US20230276792A1, “SELECTIVE HERBICIDES BASED ON SUBSTITUTED ISOXAZOLIN CARBOXAMIDES AND CLOQUINTOCET-MEXYL” (Bayer Aktiengesellschaft, priority 2020, published 2023):

Key:
Assay type in all cases: in vivo
[1] = tested on: spring wheat, TRZAS Triso; experiment: Safener seed treatment, post-emergence herbicide application, crop damage; conditions: for HER effect + SAF [%] / Reduction [%]: cloquintocet-mexyl 0, 5 g a.i./kg seed; for HER effect [%]: without safener
Excerpt: (§1) For safener seed treatment trials, sufficient seed amounts of the respective crops (spring wheat (TRZAS); spring barley (HORVS)) were weighed into screw cap glass bottles with a minimum volume trice of the seeds.
(§2) As a first step, specified safeners formulated as wettable powder (WP) or wettable granules (WG) were weighed out for the required dosages (g a.i./kg seed), corresponding to the seed amounts. The safener amounts were mixed with a coloured slurry blind formulation type, pre-diluted with milk at 3.5% fat rate (25 mgs slurry formulation plus 2 ml milk per 10 grams of seed). A tube roller was used for coating. The solutions were gradually pipetted each on the rotating seeds followed by coating for min. 3 hours until all liquid had been soaked up by the seeds. Thereafter, the coated seeds were put flat on open trays for drying over night at room temperature.
(§3) Treated seeds were then placed into pots (7 cm diameter) on the surface of sandy loam, pressed down, flat covered with additional soil and finally covered with sandy soil, also pressed down, watered, and kept under good growth conditions in a greenhouse, until the plants had reached 2-leaf-stage (BBCH 12).
(§4) At that stage, post-emergence application of the specified herbicides was done on: • a) pot sets containing plants with safener-coated seeds as described above, • b) as a reference, pot sets of plants without seed treatment.
(§5) The herbicides were formulated as wettable powder (WP). Equivalent to the spray area, compound amounts were weighed out and diluted related to the water application rate (300 l/ha) to an aqueous suspension plus additive (1 l/ha MERO). Dosage related equivalents were conventionally sprayed on trays with the potted plants.
(§6) After application, the test plants were kept under good growth conditions in a greenhouse. Assessment timings were 10 and 21 days after treatment (DAT) with the herbicide, by visual scoring of the crop damage in % (comparison of untreated with treated plants, either sprayed only with herbicide or with herbicide on plants with treated seeds).
(§7) Reduction [Difference]=herbicide damage without safener−herbicide damage with safener
(§8) Reduction [%]=(Reduction [Difference]*100)/herbicide damage without safener
b) Plant Species, Variety: TRZAS Triso, Safener (SAF): Cloquintocet-Mexyl

[2] = tested on: spring barley, HORVS Montoya; experiment: as above; parameters: key to Reduction [Difference]: % crop damage without safener minus % damage with safener; conditions: for HER effect + SAF / Reduction [Difference] / Reduction [%]: cloquintocet-mexyl 0, 5 g a.i./kg seed
Excerpt: as §1, §2, §3, §4, §5, §6, §7, §8
(§9) a) Plant Species, Variety: HORVS Montoya, Safener (SAF): Cloquintocet-Mexyl

[3] = tested on: spring barley, HORVS Montoya; experiment: Tank-mix post-emergence crop damage, herbicide with and without safener cloquintocet-mexyl, greenhouse; parameters: key to Reduction [Difference]: damage without safener − damage with safener, % points (0–100% scale); conditions: 10 DAT
Protocol: Seeds of crops (spring wheat, TRZAS; spring barley, HORVS; maize, ZEAMA) were placed in sandy loam soil in peat pots, covered with soil and cultivated in a greenhouse under good growth conditions. Two to three weeks after sowing, the test plants were treated at the 1 to 3-leaf stage. The herbicide/safener active compound combinations according to the invention, formulated as wettable powders or emulsion concentrates, and, in parallel tests, the correspondingly formulated individual active compounds were sprayed onto the green parts of the plants in various dosages using an amount of water of 300 l/ha (converted).
The pots were returned under good growing conditions in a glasshouse and a visual assessment of herbicidal effects was made at intervals from 1 to 3 weeks after herbicide application (DAT=days after treatment). Assessment was on a percentage basis in comparison with untreated control plants (0%=no injury, 100%=complete kill).
as §7, §8, §9

[4] = HER dose 1 g a.i./ha, cloquintocet-mexyl 50 g a.i./ha
[5] = 21 DAT, HER dose 1, 5 g a.i./ha
[6] = HER dose 8 g a.i./ha, cloquintocet-mexyl 50 g a.i./ha
[7] = HER dose 32 g a.i./ha, cloquintocet-mexyl 100 g a.i./ha

CC1(C(=O)NC2CC=C(C(=O)NS(C)(=O)=O)C2)CC(c2cc(F)cc(F)c2)=NO1 (mixture of isomers) [Example 1.61]
HER effect + SAF [%] ([1]; 10 DAT, HER dose 8 g a.i./ha): 0% | Reduction [%] ([1]; 10 DAT, HER dose 8 g a.i./ha): 100% | HER effect [%] ([1]; 10 DAT, HER dose 8 g a.i./ha): 50% | HER effect + SAF [%] ([1]; 10 DAT, HER dose 32 g a.i./ha): 0% | Reduction [%] ([1]; 10 DAT, HER dose 32 g a.i./ha): 100% | HER effect [%] ([1]; 10 DAT, HER dose 32 g a.i./ha): 50%

CSCCOC(=O)C1C=CC(NC(=O)C2(C(F)(F)F)CC(c3cc(F)cc(F)c3)=NO2)C1 (stereo not shown) [Example 1.7]
HER effect + SAF [%] ([1]; 10 DAT, HER dose 2 g a.i./ha): 0% | HER effect [%] ([1]; 10 DAT, HER dose 2 g a.i./ha): 50% | HER effect + SAF [%] ([1]; 10 DAT, HER dose 8 g a.i./ha): 30% | Reduction [%] ([1]; 10 DAT, HER dose 8 g a.i./ha): 68% | HER effect [%] ([1]; 10 DAT, HER dose 8 g a.i./ha): 93% | HER effect + SAF [%] ([1]; 10 DAT, HER dose 32 g a.i./ha): 50% | Reduction [%] ([1]; 10 DAT, HER dose 32 g a.i./ha): 46% | HER effect [%] ([1]; 10 DAT, HER dose 32 g a.i./ha): 93% | HER effect + SAF ([2]; 21 DAT, HER dose 2 g a.i./ha): 30% | Reduction [Difference] ([2]; 21 DAT, HER dose 2 g a.i./ha): 40 | HER effect + SAF ([2]; 21 DAT, HER dose 32 g a.i./ha): 60% | Reduction [%] ([2]; 21 DAT, HER dose 32 g a.i./ha): 37% | Reduction [Difference] ([2]; 21 DAT, HER dose 32 g a.i./ha): 35

CC1(C(=O)NC2C=CC(C(=O)O)C2)CC(c2cc(F)cc(F)c2)=NO1 (stereo not shown) [Example 1.36]
HER effect + SAF [%] ([1]; 21 DAT, HER dose 1 g a.i./ha): 0% | HER effect [%] ([1]; 21 DAT, HER dose 1 g a.i./ha): 85% | HER effect + SAF [%] ([1]; 21 DAT, HER dose 4 g a.i./ha): 60% | Reduction [%] ([1]; 21 DAT, HER dose 4 g a.i./ha): 35% | HER effect [%] ([1]; 21 DAT, HER dose 4 g a.i./ha): 93% | HER effect + SAF [%] ([1]; 21 DAT, HER dose 16 g a.i./ha): 70% | HER effect [%] ([1]; 21 DAT, HER dose 16 g a.i./ha): 95% | HER effect + SAF ([2]; 21 DAT, HER dose 1 g a.i./ha): 10% | Reduction [%] ([2]; 21 DAT, HER dose 1 g a.i./ha): 67% | HER effect ([2]; 21 DAT, HER dose 1 g a.i./ha, without safener): 30% | Reduction [%] ([2]; 21 DAT, HER dose 4 g a.i./ha): 78% | Reduction [Difference] ([2]; 21 DAT, HER dose 4 g a.i./ha): 73 | HER effect + SAF ([2]; 21 DAT, HER dose 16 g a.i./ha): 40% | Reduction [%] ([2]; 21 DAT, HER dose 16 g a.i./ha): 58% | Reduction [Difference] ([2]; 21 DAT, HER dose 16 g a.i./ha): 55 | Reduction [%] [3, 4]: 38% | Reduction [Difference] [3, 4]: 30

COC(=O)C1(C)CC(NC(=O)C2(C(C)(F)F)CC(c3cc(F)cc(F)c3)=NO2)CO1 (mixture of isomers) [Example 1.94]
HER effect + SAF [%] [1, 5]: 0% | HER effect [%] [1, 5]: 20% | HER effect + SAF [%] ([1]; 21 DAT, HER dose 6 g a.i./ha): 10% | HER effect [%] ([1]; 21 DAT, HER dose 6 g a.i./ha): 85% | HER effect + SAF [%] ([1]; 21 DAT, HER dose 24 g a.i./ha): 20% | HER effect [%] ([1]; 21 DAT, HER dose 24 g a.i./ha): 85% | Reduction [Difference] ([2]; 10 DAT, HER dose 8 g a.i./ha): 90 | Reduction [%] ([2]; 10 DAT, HER dose 32 g a.i./ha): 89% | Reduction [Difference] ([2]; 10 DAT, HER dose 32 g a.i./ha): 80 | Reduction [Difference] [3, 6]: 90

COC(=O)C1C=CC(NC(=O)C2(C(F)(F)F)CC(c3cccc(F)c3)=NO2)C1 (stereo not shown) [Example 1.18]
Reduction [Difference] ([2]; 10 DAT, HER dose 32 g a.i./ha): 80

COC(=O)C1COCC1NC(=O)C1(C)CC(c2cc(F)cc(F)c2)=NO1 (mixture of isomers) [Example 1.93]
HER effect + SAF [%] ([1]; 21 DAT, HER dose 2 g a.i./ha): 0% | HER effect [%] ([1]; 21 DAT, HER dose 2 g a.i./ha): 85% | HER effect + SAF [%] ([1]; 21 DAT, HER dose 8 g a.i./ha): 10% | HER effect [%] ([1]; 21 DAT, HER dose 8 g a.i./ha): 93% | HER effect + SAF [%] ([1]; 21 DAT, HER dose 32 g a.i./ha): 10% | HER effect [%] ([1]; 21 DAT, HER dose 32 g a.i./ha): 95% | HER effect + SAF ([2]; 10 DAT, HER dose 32 g a.i./ha): 20% | Reduction [%] ([2]; 10 DAT, HER dose 32 g a.i./ha): 78% | Reduction [Difference] ([2]; 10 DAT, HER dose 32 g a.i./ha): 70 | HER effect + SAF [3, 6]: 60% | Reduction [%] [3, 6]: 29% | Reduction [Difference] [3, 6]: 25 | HER effect + SAF [3, 7]: 60% | Reduction [%] [3, 7]: 33% | Reduction [Difference] [3, 7]: 30

COC(=O)C1CC(NC(=O)C2(OC)CC(c3cc(F)cc(F)c3)=NO2)CO1 (mixture of isomers) [Example 1.72]
HER effect + SAF [%] ([1]; 21 DAT, HER dose 32 g a.i./ha): 10% | HER effect [%] ([1]; 21 DAT, HER dose 32 g a.i./ha): 60% | Reduction [%] [3, 6]: 67% | HER effect + SAF [3, 7]: 20% | Reduction [%] [3, 7]: 60%
